The source made the active and inactive calls. No cut-off for these calls is given here.
Experiments:
[1] = biological target: Acetylcholinesterase (Homo sapiens) (UniProt P22303); experiment: Inhibition of human erythrocyte AChE at 10 uM using acetylthiocholine iodide as substrate preincubated for 20 mins followed by substrate addition and measured after 2.5 mins by DTNB reagent based spectrometric method relative to control
[2] = biological target: Cholinesterases; ACHE & BCHE (Homo sapiens) (UniProt P06276+P22303); experiment: Selectivity index, ratio of IC50 for inhibition of human erythrocyte AChE to IC50 for inhibition of human plasma BChE; assay type: protein assay
Sequence of Cholinesterases; ACHE & BCHE (Homo sapiens) (P06276 whole entry, looked up): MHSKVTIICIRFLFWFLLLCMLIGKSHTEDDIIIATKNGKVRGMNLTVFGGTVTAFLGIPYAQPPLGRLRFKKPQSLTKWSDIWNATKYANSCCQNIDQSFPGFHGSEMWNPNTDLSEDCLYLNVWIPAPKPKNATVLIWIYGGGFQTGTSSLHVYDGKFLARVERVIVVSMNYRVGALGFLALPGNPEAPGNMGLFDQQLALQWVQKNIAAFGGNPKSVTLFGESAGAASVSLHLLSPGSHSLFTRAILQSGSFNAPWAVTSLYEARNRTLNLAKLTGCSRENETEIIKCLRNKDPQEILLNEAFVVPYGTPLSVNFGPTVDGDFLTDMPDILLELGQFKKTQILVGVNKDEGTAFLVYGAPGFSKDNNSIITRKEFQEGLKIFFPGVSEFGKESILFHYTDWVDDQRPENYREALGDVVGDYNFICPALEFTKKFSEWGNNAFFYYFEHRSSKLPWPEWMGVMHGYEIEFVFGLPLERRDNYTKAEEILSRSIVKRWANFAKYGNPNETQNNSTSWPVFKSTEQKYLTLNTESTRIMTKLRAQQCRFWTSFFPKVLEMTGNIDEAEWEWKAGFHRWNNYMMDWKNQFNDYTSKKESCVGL
Sequence of Cholinesterases; ACHE & BCHE (Homo sapiens) (P22303 whole entry, looked up): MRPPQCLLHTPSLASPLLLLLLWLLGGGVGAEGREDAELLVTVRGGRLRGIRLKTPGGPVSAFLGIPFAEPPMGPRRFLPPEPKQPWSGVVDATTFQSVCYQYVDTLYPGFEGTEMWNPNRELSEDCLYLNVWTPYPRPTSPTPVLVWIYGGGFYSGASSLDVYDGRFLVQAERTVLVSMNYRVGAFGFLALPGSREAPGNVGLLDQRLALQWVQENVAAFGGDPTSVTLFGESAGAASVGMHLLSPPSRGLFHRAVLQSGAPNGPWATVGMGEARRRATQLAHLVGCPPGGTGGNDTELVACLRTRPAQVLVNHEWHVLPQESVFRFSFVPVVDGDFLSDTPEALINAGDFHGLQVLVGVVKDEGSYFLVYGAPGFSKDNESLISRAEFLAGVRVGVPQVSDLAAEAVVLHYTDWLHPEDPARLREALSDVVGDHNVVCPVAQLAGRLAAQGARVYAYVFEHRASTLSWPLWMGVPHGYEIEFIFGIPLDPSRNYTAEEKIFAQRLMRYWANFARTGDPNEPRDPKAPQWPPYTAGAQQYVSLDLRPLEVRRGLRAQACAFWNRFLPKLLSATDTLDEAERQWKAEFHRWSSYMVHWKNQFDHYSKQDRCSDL

[3] = system: Mus musculus; experiment: Neuroprotection against oligomerized-amyloid beta (25 to 35)-induced Swiss mouse model of Alzheimer's disease assessed as increase in number of arm entries at 0.3 to 3 mg/kg, ip administered once daily for 7 days measured on day 8 by Y-maze test; assay type: functional, organism-based
[4] = biological target: T1, Cholinesterase (Homo sapiens, UniProt P06276); experiment: (§1) Inhibition of human plasma BChE assessed as carbamylation by measuring rate constant for inhibitor-enzyme complex formation using butyrylthiocholine iodide as substrate preincubated for 5 to 40 mins followed by substrate addition and measured after 2.5 mins by DTNB reagent based UV-spectrometric method
T1 sequence (P06276 whole entry): as the sequence (P06276 whole entry, looked up) above

[5] = system: Mus musculus; experiment: Effect on shock sensitivity during training in Swiss mouse model of Alzheimer's disease assessed as increase in retention latency time at 0.3 to 3 mg/kg, ip administered once daily for 7 days measured 48 hrs post-last dose by step-through passive avoidance test; assay type: ADME, organism-based; details: in vivo
[6] = system: Mus musculus; experiment: Neuroprotection against oligomerized-amyloid beta (25 to 35)-induced Swiss mouse model of Alzheimer's disease assessed as improvement in spontaneous alternation at 1 mg/kg, ip administered once daily for 7 days measured on day 8 by Y-maze test; assay type: functional, organism-based
[7] = system: HT-22; experiment: Neuroprotection against glutamate-induced cell death in mouse HT22 cells assessed as increase in cell viability measured after 24 hrs by MTT assay; assay type: functional, cell-based
[8] = biological target: T1, Cholinesterase; experiment: (§2) Inhibition of human plasma BChE assessed as half life for enzyme-inhibitor complex formation at IC>85 using butyrylthiocholine iodide as substrate incubated for 1 hr prior to compound dilution further incubated for 1 to 40 mins and subsequent substrate addition and measured after 2.5 mins by DTNB reagent based UV-spectrometric method
[9] = biological target: T1, Cholinesterase; experiment: Inhibition of human plasma BChE using butyrylthiocholine iodide as substrate preincubated for 20 mins followed by substrate addition and measured after 2.5 mins by DTNB reagent based spectrometric method
[10] = system: Mus musculus; experiment: Neuroprotection against oligomerized-amyloid beta (25 to 35)-induced Swiss mouse model of Alzheimer's disease assessed as increase in retention latency time at 0.3 to 3 mg/kg, ip administered once daily for 7 days measured 48 to 72 hrs post-last dose by step-through passive avoidance test; assay type: functional, organism-based
[11] = biological target: T1, Cholinesterase; experiment: as §1, with “[…]” for “inhibitor-enzyme”
[12] = system: HT-22; experiment: Neurotoxicity in mouse HT22 cells assessed as reduction in cell viability up to 25 uM measured after 24 hrs by MTT assay; assay type: toxicity, cell-based; details: ht-22, 24 h
[13] = Toxicity in oligomerized-amyloid beta (25 to 35)-induced Swiss mouse model of Alzheimer's disease assessed as effect on body weight gain at 0.3 to 3 mg/kg, ip administered once daily for 7 days measured daily during compound dosing; assay type: organism-based; details: in vivo, 168 h
[14] = biological target: T1, Cholinesterase; experiment: as §2, with “decarbamylation by measuring rate constant” for “half life”, “enzyme recovery” for “enzyme-inhibitor complex formation”
[15] = system: Mus musculus; experiment: Effect on latency time during training in Swiss mouse model of Alzheimer's disease assessed as increase in retention latency time at 0.3 to 3 mg/kg, ip administered once daily for 7 days measured 48 hrs post-last dose by step-through passive avoidance test; assay type: ADME, organism-based; details: in vivo
[16] = system: Mus musculus; experiment: Neuroprotection against oligomerized-amyloid beta (25 to 35)-induced Swiss mouse model of Alzheimer's disease assessed as improvement in spontaneous alternation at 0.3 mg/kg, ip administered once daily for 7 days measured on day 8 by Y-maze test; assay type: functional, organism-based
[17] = system: Mus musculus; experiment: Neuroprotection against oligomerized-amyloid beta (25 to 35)-induced Swiss mouse model of Alzheimer's disease assessed as improvement in spontaneous alternation at 3 mg/kg, ip administered once daily for 7 days measured on day 8 by Y-maze test; assay type: functional, organism-based
[18] = system: Mus musculus; experiment: Neuroprotection against oligomerized-amyloid beta (25 to 35)-induced Swiss mouse model of Alzheimer's disease assessed as increase in retention latency time at 1 to 3 mg/kg, ip administered once daily for 7 days measured 48 to 72 hrs post-last dose by step-through passive avoidance test; assay type: functional, organism-based
[19] = biological target: T2, Acetylcholinesterase (Mus musculus, UniProt P21836); experiment: Inhibition of mouse AChE using acetylthiocholine as substrate measured after 300 secs by Ellman's method
T2 sequence (P21836 whole entry): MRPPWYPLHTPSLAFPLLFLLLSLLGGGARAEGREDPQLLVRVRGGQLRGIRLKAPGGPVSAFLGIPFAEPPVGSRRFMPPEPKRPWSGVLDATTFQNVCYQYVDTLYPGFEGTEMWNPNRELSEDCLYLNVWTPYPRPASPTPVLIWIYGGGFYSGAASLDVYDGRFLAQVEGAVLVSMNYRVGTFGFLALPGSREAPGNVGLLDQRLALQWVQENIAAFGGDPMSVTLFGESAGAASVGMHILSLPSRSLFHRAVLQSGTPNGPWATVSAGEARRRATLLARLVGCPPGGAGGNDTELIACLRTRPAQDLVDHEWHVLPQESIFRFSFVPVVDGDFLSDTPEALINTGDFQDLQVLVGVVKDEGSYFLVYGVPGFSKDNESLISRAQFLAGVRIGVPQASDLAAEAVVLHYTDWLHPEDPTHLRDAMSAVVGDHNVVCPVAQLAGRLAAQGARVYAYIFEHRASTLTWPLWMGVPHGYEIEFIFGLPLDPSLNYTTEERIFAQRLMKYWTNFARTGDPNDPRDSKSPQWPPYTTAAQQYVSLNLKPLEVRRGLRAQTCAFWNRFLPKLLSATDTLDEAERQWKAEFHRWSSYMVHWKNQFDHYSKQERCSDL

[20] = system: Mus musculus; experiment: Neuroprotection against oligomerized-amyloid beta (25 to 35)-induced Swiss mouse model of Alzheimer's disease assessed as improvement in spontaneous alternation at 0.3 to 3 mg/kg, ip administered once daily for 7 days measured on day 8 by Y-maze test; assay type: functional, organism-based
[21] = system: Mus musculus; experiment: Neuroprotection against oligomerized-amyloid beta (25 to 35)-induced Swiss mouse model of Alzheimer's disease assessed as improvement in spontaneous alternation at 1 to 3 mg/kg, ip administered once daily for 7 days measured on day 8 by Y-maze test; assay type: functional, organism-based
[22] = system: HT-22; experiment: Neuroprotection against glutamate-induced cell death in mouse HT22 cells assessed as increase in cell viability at 5 uM measured after 24 hrs by MTT assay; assay type: functional, cell-based

Sequence of Acetylcholinesterase (Homo sapiens) (P22303 whole entry): as the sequence (P22303 whole entry, looked up) above

Row | Structure (SMILES) | inhibition [1] | Ratio IC50 [2] | K [4] | T1/2 [8] | IC50 [9] | K [11] | K [14] | further results
1 | CN1c2ccc(OC(=O)NCCN3CCOCC3)cc2CN2CCc3ccccc3C21 (centres undefined) | 4.1% | > 10 | – | – | – | – | – | –
2 | CN1c2ccc(OC(=O)NCCCCCCN3CCc4ccccc4C3)cc2CN2CCc3ccccc3C21 (centres undefined) | 0.4% | > 1000 | 0.18 min⁻¹ | 27.7 h | 26.7 nM | 3.6 nM | 0.025 h⁻¹ | Activity [3]: Active; Activity [5]: Non-Toxic; Activity [6]: Active; Activity [7]: Dose-dependent effect; Activity [10]: Active; Activity [12]: Non-Toxic; Activity [13]: Non-Toxic; Activity [15]: Non-Toxic
3 | CN1c2ccc(OC(=O)NCCCN3CCOCC3)cc2CN2CCc3ccccc3C21 (centres undefined) | 2.1% | > 100 | – | – | – | – | – | –
4 | CN1c2ccc(OC(=O)NCCCCN3CCc4ccccc4C3)cc2CN2CCc3ccccc3C21 (centres undefined) | 6% | > 100 | – | 24.8 h | 192 nM | – | 0.028 h⁻¹ | –
5 | CN1c2ccc(OC(=O)NCCCCCCn3ccnc3)cc2CN2CCc3ccccc3C21 (centres undefined) | 9.1% | > 1000 | 0.31 min⁻¹ | 0.85 h | 13.3 nM | 13.1 nM | 0.82 h⁻¹ | –
6 | CN1c2ccc(OC(=O)NCCCCCCN3CCOCC3)cc2CN2CCc3ccccc3C21 (centres undefined) | 26.1% | > 1000 | 0.16 min⁻¹ | 16.5 h | 49.3 nM | 202 nM | 0.042 h⁻¹ | Activity [3]: Active; Activity [5]: Non-Toxic; Activity [7]: Dose-dependent effect; Activity [16]: Active; Activity [10]: Active; Activity [12]: Non-Toxic; Activity [13]: Non-Toxic; Activity [15]: Non-Toxic
7 | CN1c2ccc(OC(=O)NCCCCCCCCN3CCOCC3)cc2CN2CCc3ccccc3C21 (centres undefined) | 13.6% | > 1000 | – | 0.44 h | 19.8 nM | – | 1.58 h⁻¹ | –
8 | CCCCCCCNC(=O)Oc1ccc2c(c1)CN(C)C(c1cccs1)N2C (centres undefined) | – | – | – | – | – | – | – | Activity [3]: inactive; Activity [17]: Active; Activity [18]: Active; Activity [5]: Non-Toxic; Activity [13]: Non-Toxic; Activity [15]: Non-Toxic
9 | CN1c2ccc(OC(=O)NCCCCCCN3CCCCC3)cc2CN2CCc3ccccc3C21 (centres undefined) | – | 14 | – | 5.64 h | 83.7 nM | – | 0.123 h⁻¹ | –
10 | CN1c2ccc(OC(=O)NCCCN3CCc4ccccc4C3)cc2CN2CCc3ccccc3C21 (centres undefined) | 6.4% | > 10 | – | – | 1160 nM | – | – | –
11 | CN1c2ccc(OC(=O)NCCCCCCN3CCNCC3)cc2CN2CCc3ccccc3C21 (centres undefined) | 35.5% | > 100 | 0.32 min⁻¹ | 0.48 h | 80.6 nM | 121 nM | 1.44 h⁻¹ | –
12 | COCCN(CC1CCCN(Cc2ccccc2)C1)S(=O)(=O)c1ccc2ccccc2c1 (centres undefined) | – | – | – | – | – | – | – | IC50 [19]: > 10000 nM
13 | CN1c2ccc(OC(=O)NCCCCCCn3cnc4ccccc43)cc2CN2CCc3ccccc3C21 (centres undefined) | 28.8% | > 1000 | 0.26 min⁻¹ | 1.55 h | – | 7.7 nM | 0.45 h⁻¹ | –
14 | CN1c2ccc(OC(=O)NCCCCCCN3CCN(C(=O)OC(C)(C)C)CC3)cc2CN2CCc3ccccc3C21 (centres undefined) | 70.6% | > 10 | 0.7 min⁻¹ | – | 123 nM | 1550 nM | – | –
15 | CN1c2ccc(OC(=O)NCCCCCCCCCCN3CCc4ccccc4C3)cc2CN2CCc3ccccc3C21 (centres undefined) | 5.7% | > 1000 | 0.25 min⁻¹ | – | – | 5.68 nM | – | –
16 | CN1c2ccc(OC(=O)NCCCCCCCCN3CCc4ccccc4C3)cc2CN2CCc3ccccc3C21 (centres undefined) | 6.2% | > 1000 | – | 0.84 h | 32.6 nM | – | 0.83 h⁻¹ | –
17 | CN1c2ccc(OC(=O)NCCCCN3CCOCC3)cc2CN2CCc3ccccc3C21 (centres undefined) | 16.3% | > 1000 | – | 1.44 h | 50.6 nM | – | 0.48 h⁻¹ | –
18 | CN1c2ccc(O)cc2CN2CCc3ccccc3C21 (centres undefined) | – | – | – | – | – | – | – | Activity [3]: Active; Activity [5]: Non-Toxic; Activity [20]: inactive; Activity [10]: inactive; Activity [13]: Non-Toxic; Activity [15]: Non-Toxic
19 | CN1c2ccc(OC(=O)NCCN3CCc4ccccc4C3)cc2CN2CCc3ccccc3C21 (centres undefined) | 3.9% | > 10 | > 20 min⁻¹ | – | 1720 nM | > 200000 nM | – | –
20 | CN1c2ccc(OC(=O)NCCCCCCN3CCCC3)cc2CN2CCc3ccccc3C21 (centres undefined) | – | 26 | – | 0.71 h | 34.3 nM | – | 0.98 h⁻¹ | –
21 | CN1c2ccc(OC(=O)NCCCCCCCCCCN3CCOCC3)cc2CN2CCc3ccccc3C21 (centres undefined) | 17.8% | > 1000 | – | – | 11.5 nM | – | – | –
22 | CCCCCCCNC(=O)Oc1ccc2c(c1)CN1CCc3ccccc3C1N2C (centres undefined) | – | – | 0.66 min⁻¹ | – | – | – | – | Activity [3]: Active; Activity [21]: Active; Activity [5]: Non-Toxic; Activity [10]: Active; Activity [22]: Active; Activity [12]: Non-Toxic; Activity [13]: Non-Toxic; Activity [15]: Non-Toxic

Source: ChEMBL document CHEMBL4321822 (J Med Chem, 2019)
